Measured values taken from PubChem BioAssay AID248 (DTP/NCI, 2004).
Several values for one entry are separate records, joined by “and”; a condition that tells them apart may be missing. Identical values can stand only once. Inconclusive results and toxic doses are left out. No stated cut-off is given here; in the data, active means T/C of 150% or more; inactive means T/C below 125%.

System: L1210 leukemia ip in BDF1 mice, survival T/C
Test: NCI In Vivo Anticancer Drug Screen. Data for tumor model L1210 Leukemia (intraperitoneal) in B6D2F1 (BDF1) mice
Settings: endpoint: mean survival time, higher = longer survival
Procedure, shortened: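 Tumor cells were implanted, animals were treated, and survival was followed. The result divides the treated measurement by the vehicle-control measurement.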

[1] = dose: 30.0 mg/kg/injection, schedule: Q01DX Z (ip), vehicle: methylcellulose (MC)
[2] = dose: 100.0 mg/kg/injection, schedule: Q04DX003 (ip), vehicle: Klucel (hydroxypropylcellulose) (HPC)
[3] = dose: 200.0 mg/kg/injection, schedule: Q04DX003 (ip), vehicle: Klucel (hydroxypropylcellulose) (HPC)
[4] = dose: 400.0 mg/kg/injection, schedule: Q04DX003 (ip), vehicle: Klucel (hydroxypropylcellulose) (HPC)
[5] = dose: 100.0 mg/kg/injection, schedule: Q01DX001 (ip), vehicle: saline

Measured: T/C

COc1cc(N(CCCl)CCCl)ccc1C=Nc1ccc2c(c1)nc(C)n2C
inactive: dose: 68.8 mg/kg/injection, schedule: Q04DX002 (ip), vehicle: Klucel (hydroxypropylcellulose) (HPC) 104 % of control | dose: 137.5 mg/kg/injection, schedule: Q04DX002 (ip), vehicle: Klucel (hydroxypropylcellulose) (HPC) 101 % of control | dose: 275.0 mg/kg/injection, schedule: Q04DX002 (ip), vehicle: Klucel (hydroxypropylcellulose) (HPC) 117 % of control

CCOC(=O)/C=C/Sc1ccccc1
inactive: dose: 12.5 mg/kg/injection, schedule: Q04DX002 (ip), vehicle: saline with Tween-80 98 % of control | dose: 25.0 mg/kg/injection, schedule: Q04DX002 (ip), vehicle: saline with Tween-80 98 % of control | dose: 50.0 mg/kg/injection, schedule: Q04DX002 (ip), vehicle: saline with Tween-80 91 % of control

COC(=O)CCNS(=O)(=O)c1ccc(C)cc1
inactive: dose: 50.0 mg/kg/injection, schedule: Q01DX001 (ip), vehicle: carboxymethylcellulose (CMC) 92 % of control | dose: 100.0 mg/kg/injection, schedule: Q01DX001 (ip), vehicle: carboxymethylcellulose (CMC) 94 % of control | dose: 200.0 mg/kg/injection, schedule: Q01DX001 (ip), vehicle: carboxymethylcellulose (CMC) 94 % of control | dose: 400.0 mg/kg/injection, schedule: Q01DX001 (ip), vehicle: carboxymethylcellulose (CMC) 92 % of control

O=C(Nc1ccc(O)cc1)c1ccc(C(=O)Nc2ccc(O)cc2)cc1
inactive: dose: 15.0 mg/kg/injection, schedule: Q01DX Z (ip), vehicle: methylcellulose (MC) 112 % of control | [1] 93 % of control | dose: 60.0 mg/kg/injection, schedule: Q01DX Z (ip), vehicle: methylcellulose (MC) 98 % of control | dose: 120.0 mg/kg/injection, schedule: Q01DX Z (ip), vehicle: methylcellulose (MC) 98 % of control

O=C(CBr)OCC1CC2C=CC1C2 (centres undefined)
inactive: dose: 13.3 mg/kg/injection, schedule: Q01DX Z (ip), vehicle: methylcellulose (MC) 93 % of control | dose: 20.0 mg/kg/injection, schedule: Q01DX Z (ip), vehicle: methylcellulose (MC) 96 % of control | [1] 90 % of control

O=C1c2ccccc2-c2nc3cncnc3nc21 (tested in a mixture with another compound)
inactive: dose: 50.0 mg/kg/injection, schedule: Q01DX009 (ip), vehicle: saline 98 % of control | dose: 100.0 mg/kg/injection, schedule: Q01DX009 (ip), vehicle: saline 101 % of control | dose: 100.0 mg/kg/injection, schedule: Q04DX003 (ip), vehicle: saline 95 % of control | dose: 200.0 mg/kg/injection, schedule: Q01DX009 (ip), vehicle: saline 101 % of control | dose: 200.0 mg/kg/injection, schedule: Q04DX003 (ip), vehicle: saline 101 % of control

Cc1cc(C)c(C)c(OCC(=O)O)c1
inactive: dose: 75.0 mg/kg/injection, schedule: Q01DX001 (ip), vehicle: other 97 % of control | dose: 150.0 mg/kg/injection, schedule: Q01DX001 (ip), vehicle: other 97 % of control | dose: 300.0 mg/kg/injection, schedule: Q01DX001 (ip), vehicle: other 95 % of control

CCOC(=O)c1cnc(SC)nc1OCC
inactive: dose: 12.0 mg/kg/injection, schedule: Q01DX001 (ip), vehicle: Klucel (hydroxypropylcellulose) (HPC) 93 % of control | dose: 25.0 mg/kg/injection, schedule: Q01DX001 (ip), vehicle: Klucel (hydroxypropylcellulose) (HPC) 104 % of control

CS(=O)(=O)OCCN(CCOS(C)(=O)=O)c1ccc(C=Nc2ccc3ccccc3c2)c(Cl)c1
inactive: [2] 103 % of control and 107 % of control | [3] 113 % of control | [4] 118 % of control

Nc1csc2cccc[n+]12
inactive: dose: 25.0 mg/kg/injection, schedule: Q04DX003 (ip), vehicle: saline 100 % of control | [5] 96 % of control

COc1cc(/C=N/N=C(\N)N[N+](=O)[O-])cc(OC)c1OC
inactive: dose: 100.0 mg/kg/injection, schedule: Q01DX001 (ip), vehicle: saline with Tween-80 114 % of control | dose: 200.0 mg/kg/injection, schedule: Q01DX001 (ip), vehicle: saline with Tween-80 97 % of control | dose: 400.0 mg/kg/injection, schedule: Q01DX001 (ip), vehicle: saline with Tween-80 96 % of control

CC(C)=CCC/C(C)=C/Cn1c(=O)cc[nH]c1=O
inactive: dose: 100.0 mg/kg/injection, schedule: Q04DX003 (ip), vehicle: other 96 % of control | dose: 200.0 mg/kg/injection, schedule: Q04DX003 (ip), vehicle: other 86 % of control | dose: 400.0 mg/kg/injection, schedule: Q04DX003 (ip), vehicle: other 86 % of control

CCCCCCN1C(=O)c2ccccc2S1(=O)=O
inactive: dose: 222.0 mg/kg/injection, schedule: Q01DX Z (ip), vehicle: methylcellulose (MC) 101 % of control | dose: 333.0 mg/kg/injection, schedule: Q01DX Z (ip), vehicle: methylcellulose (MC) 113 % of control | dose: 500.0 mg/kg/injection, schedule: Q01DX Z (ip), vehicle: methylcellulose (MC) 100 % of control

CN(C)/C=N/Nc1ccc([N+](=O)[O-])cc1[N+](=O)[O-]
inactive: dose: 100.0 mg/kg/injection, schedule: Q01DX009 (ip), vehicle: Klucel (hydroxypropylcellulose) (HPC) 94 % of control | [2] 102 % of control | dose: 200.0 mg/kg/injection, schedule: Q01DX009 (ip), vehicle: Klucel (hydroxypropylcellulose) (HPC) 94 % of control | [3] 97 % of control | dose: 400.0 mg/kg/injection, schedule: Q01DX009 (ip), vehicle: Klucel (hydroxypropylcellulose) (HPC) 96 % of control | [4] 97 % of control

CC(=O)Nc1nc(C(=O)O)c(CCCCc2ccccc2)c(=O)[nH]1
inactive: dose: 100.0 mg/kg/injection, schedule: Q01DX001 (ip), vehicle: Klucel (hydroxypropylcellulose) (HPC) 95 % of control | dose: 200.0 mg/kg/injection, schedule: Q01DX001 (ip), vehicle: Klucel (hydroxypropylcellulose) (HPC) 98 % of control | dose: 400.0 mg/kg/injection, schedule: Q01DX001 (ip), vehicle: Klucel (hydroxypropylcellulose) (HPC) 101 % of control

O=C1C(Br)CS(=O)(=O)CC1Br (centres undefined)
inactive: dose: 6.25 mg/kg/injection, schedule: Q01DX009 (ip), vehicle: saline 96 % of control | dose: 8.75 mg/kg/injection, schedule: Q01DX009 (ip), vehicle: saline 106 % of control | dose: 12.5 mg/kg/injection, schedule: Q01DX009 (ip), vehicle: saline 86 % of control | dose: 12.5 mg/kg/injection, schedule: Q04DX003 (ip), vehicle: Klucel (hydroxypropylcellulose) (HPC) 96 % of control | dose: 15.0 mg/kg/injection, schedule: Q01DX001 (ip), vehicle: carboxymethylcellulose (CMC) 102 % of control | dose: 17.5 mg/kg/injection, schedule: Q01DX009 (ip), vehicle: saline 98 % of control | dose: 25.0 mg/kg/injection, schedule: Q01DX009 (ip), vehicle: saline 91 % of control | dose: 25.0 mg/kg/injection, schedule: Q04DX003 (ip), vehicle: Klucel (hydroxypropylcellulose) (HPC) 94 % of control | dose: 30.0 mg/kg/injection, schedule: Q01DX001 (ip), vehicle: carboxymethylcellulose (CMC) 106 % of control

CS(N)(=O)=O
inactive: dose: 12.5 mg/kg/injection, schedule: Q04DX002 (ip), vehicle: saline 111 % of control | dose: 25.0 mg/kg/injection, schedule: Q04DX002 (ip), vehicle: saline 96 % of control | dose: 50.0 mg/kg/injection, schedule: Q04DX002 (ip), vehicle: saline 96 % of control

COc1ccc(C(=O)C(C)CN2CCCCC2)cc1 (centres undefined)
inactive: [5] 96 % of control | dose: 200.0 mg/kg/injection, schedule: Q01DX001 (ip), vehicle: saline 107 % of control
